Results as given in patent publication US10080779B2, “Method for increasing the expression of anti-microbial peptides by keratinocytes comprising administering a composition comprising IL-17, TNF-alpha and OSM” (Universite D'Angers, priority 2004, dated 2018).

What was measured:
NHEK [1] = assay: Gene expression profiling of NHEK using cDNA macroarrays; format: cell-based, human; details: 10 ng/ml OSM 24 h
Procedure: Total RNA was isolated as described for PCR studies. DNase treatment, polyA^+ RNA enrichment, ^33P-labelled cDNA probe synthesis, purification and hybridization to custom Atlas array membranes (Bernard, Pedretti et al. 2002) were performed according to Clontech's recommendations (Clontech, Palo Alto, USA). Membranes were exposed for 5 days to a Molecular Dynamics Storm storage screen and scanned using a phosphorimager scanner (Molecular Dynamics Storm analyser, Amersham Biosciences, Uppsala, Sweden). After local background substraction, average signal intensity from duplicate spots was normalized for differences in probe labelling using the values obtained for housekeeping genes (Bernard et al., 2002). For each gene, the OSM-induced modulation was expressed as the relative expression value for stimulated versus control sample. Arbitrarily, only modulation above 2 was considered significant for confirmation using RT-real time PCR assay.

[2] = tested on: normal human keratinocytes (NHEK); assay: Cytokine cocktails on S100A7, hBD2/4, KRT10 mRNA in NHEK (RT-Q-PCR); format: cell-based; details: NHEK 24 hrs, 1 ng/ml each
Procedure: (§1) Quantitative real time PCR was carried out using the LightCycler-FastStart DNA Master^PLUS SYBR Green I kit (Roche, Mannheim, Germany). The reaction components were 1× FastStart DNA Master^PLUS SYBR Green I and 0.5 μM of forward and reverse primers for S100A7 (forward 5′-[…]-3′ (SEQ ID No: 9) and reverse 5′-[…]-3′ (SEQ ID No: 10)), S100A8 (Pattyn, Speleman et al. 2003), S100A9 (forward 5′-[…]-3′ (SEQ ID No: 11) and reverse 5′-[…]-3′ (SEQ ID No: 12)), hBD2/4 (forward 5′-[…]-3′ (SEQ ID No: 13) and reverse 5′-[…]-3′ (SEQ ID No: 14)), KRT10 (forward 5′-[…]-3′ (SEQ ID No: 15) and reverse 5′-[…]-3′ (SEQ ID No: 16)), and hydroxymethyl-bilane synthase (HMBS) as a housekeeping gene (Vandesompele, De Preter et al. 2002). After cDNA fluorescent quantification using propidium iodide, 250 ng, 25 ng and 2.5 ng of cDNA were added as PCR template in the LightCycler glass capillaries. The cycling conditions comprised a 10 min polymerase activation at 95° C. and 50 cycles at 95° C. for 10 s, 64° C. for 5 s and 72° C. for 18 s with a single fluorescence measurement. […] A mathematical model was used to determine the relative quantification of target genes compared to HMBS reference gene (Pfaffl 2001).
To that aim, confluent normal human keratinocytes (NHEK) were treated for 24 hrs with the indicated mix of cytokines (each cytokine at 1 ng/ml final concentration). Total RNA was extracted, reverse-transcribed and the expression of the selected genes was analyzed by real-time PCR as described.

NHEK [3] = assay: RT-QPCR of antimicrobial peptide and chemokine genes in NHEK; format: cell-based, human; details: 10 ng/ml, 24 h
Procedure: NHEK were obtained as previously described, from surgical samples of healthy breast skin (Boniface et al, 2005). NHEK were cultured to 80% of confluence and then starved for 24 h in Keratinocyte SFM without addition of growth factors before stimulation. Cells were stimulated with or without 10 ng/ml of recombinant IL-17A, OSM, TNFα, IL-22 and IL-1α alone or in combination (R&D systems Europe, Lille, France) during 24 h for mRNA quantification or 48 h to 96 h for protein quantification.
NHEK and skin total RNA were isolated and reverse-transcribed as previously described (Boniface et al, 2005). Quantitative real time PCR was carried using the LightCycler-FastStart DNA Master SYBR® Green I kit on LightCycler 480 (Roche Diagnostics, Meylan, France). The reaction components were 1×DNA Master Mix, and 0.5 μM of HPLC purified sense and anti-sense oligonucleotides purchased from Eurogentec (Eurogentec France, Angers, France), designed using Primer3 software. Samples were normalized to three independent control housekeeping genes (G3PDH, RPL13A or ACTB for human samples and G3PDH, HMBS or B2m for mouse samples) and reported according to the ΔΔCT method as RNA fold increase: 2^ΔΔCT=2^ΔCT sample−ΔCT eference. For comparison of normal skin and psoriatic skin the REST 2008 software was used (Pfaffl et al., 2002).

RHE = assay: KDM mRNA in reconstituted human epidermis (RT-PCR); format: cell-based; details: 24 h
Procedure: Normal human epidermal keratinocytes (NHEK) were obtained as previously described, from surgical samples of healthy breast skin (Boniface et al, 2005). NHEK were cultured to 80% of confluence allowing the expression of a large panel of keratinocyte differentiation markers, and then starved for 24 h in Keratinocyte SFM containing 0.03 mM Ca^2+ (Invitrogen Life Technologies, Cergy Pontoise, France) before stimulation. Confluent differentiated cells were stimulated with or without recombinant IL-17A, OSM, TNFα, IL-22 and IL-1α alone at maximum effective concentrations (reported previously around 10 ng/ml (Boniface et al, 2005 and Boniface et al, 2007)) or in combination (R&D systems Europe, Lille, France) during 2 h to 72 h for mRNA quantification. RHE were generated on polycarbonate culture inserts, from surgical samples of paediatric foreskins as previously described (Guenou et al., 2009). RHE were stimulated with or without recombinant IL-17A, OSM, TNFα, IL-22 and IL-1α alone or in combination, with or without a Janus protein Tyrosine Kinases (JAKs) inhibitor 10 μM (Calbiochem, 420099), during 24 h for mRNA quantification or during 72 h for immunohistological analysis.
NHEK, RHE and murine skin total RNA were isolated using NucleoSpin® RNA II kit (Macherey-Nagel, Hoerdt, France) and reverse-transcribed with SuperScript® II Reverse Transcriptase (Invitrogen Life Technologies) according to the manufacturer's instructions. Quantitative real time PCR was carried out using the LightCycler-FastStart DNA Master SYBR® Green I kit on LightCycler 480 (Roche Diagnostics, Meylan, France). The reaction components were 1×DNA Master Mix, and 0.5 μM of HPLC purified sense and anti-sense oligonucleotides purchased from Eurogentec (Eurogentec France, Angers, France), designed using Primer3 software. The stability of the housekeeping gene expression has been assessed by using GeNorm algorithm. […] Thus samples were normalized to G3PDH housekeeping gene and reported according to the ΔΔCT method as RNA fold increase: 2^ΔΔCT=2^ΔCT sample−ΔCT reference.

NHEK [4] = assay: RT-real time PCR of S100 mRNA in cytokine-stimulated NHEK; format: cell-based, human
Procedure: as §1

OSM: human recombinant oncostatin M, cytokine of the IL-6 family
Expression of CXCL1, CXCL5, CXCL8 and PDGF-A genes (NHEK [1]): increased the expression
Expression of calcium binding proteins S100A7, S100A8, S100A9, S100 neutrophil protein (NHEK [1]): marked increase
Expression of genes associated with keratinocyte differentiation (CK1, CK10, fillagrin, loricrin) (NHEK [1]): down regulates
Number of genes with decreased expression (NHEK [1]; array of 586 cDNAs): 38 genes
Number of genes with increased expression (NHEK [1]; array of 586 cDNAs): 36 genes
Decrease of the activity of the 5 cytokines reference mix on omission of the cytokine, S100A7 [2]: 3 fold
Decrease of the activity of the 5 cytokines reference mix on omission of the cytokine, hBD2/4 [2]: 2.5 fold
Number of the 21 chemokine and antimicrobial peptide genes upregulated (NHEK [3]): 13
Expression of KDM mRNA (CK10, CK1, LOR, FLG) (RHE): most active cytokines
S100A7 mRNA expression (RHE): strongly induced
Time at which S100A7 mRNA increase starts (NHEK [4]; 10 ng/ml OSM): 12 h
psoriasin/S100A7 mRNA induction above the control value (NHEK [4]; 10 ng/ml OSM, 96 h): about 290 folds
OSM concentration at which plateau of S100A7 mRNA is reached (NHEK [4]; 48-h treatment): 6.3 ng/mL
psoriasin/S100A7 mRNA increase above control at plateau (NHEK [4]; 48-h treatment, 6.3 ng/ml OSM): fifty fold increase
